The results in this text go back to patent US12201679B2, “Epitope-targeted peptide immunostimulants” (priority 2019, dated 2025).

The nature of data set [1]: Isocratic point, elution from C18 prep-scale column. Format: physicochemical. The conditions noted are these: elution from C18 column. The procedure: PCC compounds were purified on a Waters Autopurification system, which isolated compounds based on MS peaks corresponding to protonated [M+1H]^+ and [M+2H]^2+, and/or sodium adducts [M+Na]^+ and [M+2Na]^2+. The isocratic points of PCCs were determined based on the elution of the compound from a C18 prep-scale column. Synthetic epitopes were either purified on the Waters Autopurification System, or by semi-preparative HPLC and then using matrix-assisted laser desorption/ionization mass spectroscopy to identify fractions with the desired m/z ratio. The resulting peptides were lyophilized, the yield determined by mass difference or UV-visible absorbance, and resuspended at a concentration of up to 10 mM peptide in DMSO. Peptides were stored at −80° C. before thawing for each use.

Data set [2] concerns the target full-length recombinant MrkA protein (Klebsiella pneumoniae, UniProt P12267). Type of data set: binding. The text has this: HPraGly is present before X1 in each peptide and Az4 follows X5 in each peptide.

Each structure is given as a SMILES string. Read-outs that look alike come from different tables or passages of the source. Bridge positions count the residues as written; N and C are the ends. Square brackets hold non-standard residues; d marks the D form. Triazole bridges read from a SMILES are 1,4-linked. Peptide text beside a SMILES is read from it. * marks the point of attachment. Biotin = O=C1N[C@H]2[C@H](CS[C@H]2CCCCC(=O)*)N1; PEG10 = NCCOCCOCCOCCOCCOCCOCCOCCOCCOCCOCCC(=O)O; Lys(N3) = [N-]=[N+]=NCCCC[C@H](N)C(=O)O; Orn(N3) = [N-]=[N+]=NCCC[C@H](N)C(=O)O; Phe(4-F) = N[C@@H](Cc1ccc(F)cc1)C(=O)O; PEG5 = NCCOCCOCCOCCOCCOCCC(=O)O; Pra = C#CC[C@H](N)C(=O)O

full-length recombinant MrkA protein, sequence (P12267 23-202): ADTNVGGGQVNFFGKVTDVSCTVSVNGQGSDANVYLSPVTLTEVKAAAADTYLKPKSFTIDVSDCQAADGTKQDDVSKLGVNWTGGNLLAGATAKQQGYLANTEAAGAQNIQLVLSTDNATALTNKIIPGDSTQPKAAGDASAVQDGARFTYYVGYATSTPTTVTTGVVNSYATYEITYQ

Regarding `CC(C)C[C@@H]1NC(=O)[C@H](CC(C)C)NC(=O)[C@@H](NC(=O)CCOCCOCCOCCOCCOCCOCCOCCOCCOCCOCCNC(=O)CCCC[C@@H]2SC[C@@H]3NC(=O)N[C@@H]32)Cc2cn(nn2)CCCC[C@@H](C(N)=O)NC(=O)[C@H](Cc2ccccc2)NC(=O)[C@H](Cc2ccccc2)NC(=O)[C@H](C)NC1=O` [compound 4] ({Biotin-PEG10}-[Pra]LLAFF[Lys(N3)]-NH2; triazole 1-7), the “Isocratic point (%)” value in data set [1] was 70.97%. In addition, the “Relative affinity (ratio of ELISA signal versus cy(LLFFF))” value in data set [2] (ELISA 2, [MrkA] 25 nM) turned out to be 0.59.
As for `CC(C)C[C@@H]1NC(=O)[C@@H](NC(=O)CCOCCOCCOCCOCCOCCOCCOCCOCCOCCOCCNC(=O)CCCC[C@@H]2SC[C@@H]3NC(=O)N[C@@H]32)Cc2cn(nn2)CCCC[C@@H](C(N)=O)NC(=O)[C@H](Cc2ccccc2)NC(=O)[C@H](C)NC(=O)[C@H](Cc2ccccc2)NC(=O)[C@H](CC(C)C)NC1=O` [compound 5] ({Biotin-PEG10}-[Pra]LLFAF[Lys(N3)]-NH2; triazole 1-7), the “Isocratic point (%)” value in data set [1] was found to be 66.00%. Further, the “Relative affinity (ratio of ELISA signal versus cy(LLFFF))” value in data set [2] (ELISA 2, [MrkA] 25 nM) is 0.10.
As to `CC(C)C[C@@H]1NC(=O)[C@@H](NC(=O)CCOCCOCCOCCOCCOCCOCCOCCOCCOCCOCCNC(=O)CCCC[C@@H]2SC[C@@H]3NC(=O)N[C@@H]32)CCCCn2cc(nn2)C[C@@H](C(N)=O)NC(=O)[C@H](C)NC(=O)[C@H](Cc2ccccc2)NC(=O)[C@H](Cc2ccccc2)NC(=O)[C@H](CC(C)C)NC1=O` [compound 6] ({Biotin-PEG10}-[Lys(N3)]LLFFA[Pra]-NH2; triazole 1-7), in data set [1], the “Isocratic point (%)” value worked out at 64.43%. The “Relative affinity (ratio of ELISA signal versus cy(LLFFF))” value in data set [2] (ELISA 2, [MrkA] 25 nM) stood at 0.04.
Regarding `C[C@@H]1NC(=O)[C@H](C)NC(=O)[C@@H](NC(=O)CCOCCOCCOCCOCCOCCOCCOCCOCCOCCOCCNC(=O)CCCC[C@@H]2SC[C@@H]3NC(=O)N[C@@H]32)Cc2cn(nn2)CCCC[C@@H](C(N)=O)NC(=O)[C@H](Cc2ccccc2)NC(=O)[C@H](Cc2ccccc2)NC(=O)[C@H](Cc2ccccc2)NC1=O` [compound 7] ({Biotin-PEG10}-[Pra]AAFFF[Lys(N3)]-NH2; triazole 1-7), the “Isocratic point (%)” value in data set [1] is 54.65%. Also, the “Relative affinity (ratio of ELISA signal versus cy(LLFFF))” value in data set [2] (ELISA 3, [MrkA] 50 nM) is 0.15.
With `CC(C)C[C@@H]1NC(=O)[C@@H](NC(=O)CCOCCOCCOCCOCCOCCOCCOCCOCCOCCOCCNC(=O)CCCC[C@@H]2SC[C@@H]3NC(=O)N[C@@H]32)Cc2cn(nn2)CCCC[C@@H](C(N)=O)NC(=O)[C@H](Cc2ccccc2)NC(=O)[C@H](Cc2ccccc2)NC(=O)[C@H](Cc2ccccc2)NC1=O` [compound 8] ({Biotin-PEG10}-[Pra]LFFF[Lys(N3)]-NH2; triazole 1-6), in data set [1], the “Isocratic point (%)” value worked out at 61.84%. In data set [2] (ELISA 3, [MrkA] 50 nM), the “Relative affinity (ratio of ELISA signal versus cy(LLFFF))” value was found to be 0.46.
On the same counts, the results for `CC(C)C[C@@H]1NC(=O)[C@@H](NC(=O)CCOCCOCCOCCOCCOCCOCCOCCOCCOCCOCCNC(=O)CCCC[C@@H]2SC[C@@H]3NC(=O)N[C@@H]32)Cc2cn(nn2)CCC[C@@H](C(N)=O)NC(=O)[C@H](Cc2ccccc2)NC(=O)[C@H](Cc2ccccc2)NC(=O)[C@H](Cc2ccccc2)NC(=O)[C@H](CC(C)C)NC1=O` [compound 10] ({Biotin-PEG10}-[Pra]LLFFF[Orn(N3)]-NH2; triazole 1-7) are 76.89% and 0.89.
The corresponding values for `CC(C)C[C@@H]1NC(=O)[C@@H](NC(=O)CCOCCOCCOCCOCCOCCOCCOCCOCCOCCOCCNC(=O)CCCC[C@@H]2SC[C@@H]3NC(=O)N[C@@H]32)Cc2cn(nn2)CCCC[C@@H](C(N)=O)NC(=O)[C@H](Cc2ccc(F)cc2)NC(=O)[C@H](Cc2ccccc2)NC(=O)[C@H](Cc2ccccc2)NC(=O)[C@H](CC(C)C)NC1=O` [compound 11] ({Biotin-PEG10}-[Pra]LLFF[Phe(4-F)][Lys(N3)]-NH2; triazole 1-7) are 75.53% and 0.88.
Consider `C[C@@H](O)[C@@H]1NC(=O)[C@@H](NC(=O)CCOCCOCCOCCOCCOCCNC(=O)CCCC[C@@H]2SC[C@@H]3NC(=O)N[C@@H]32)Cc2cn(nn2)CCCC[C@@H](C(N)=O)NC(=O)[C@H](Cc2ccccc2)NC(=O)[C@H](Cc2ccccc2)NC(=O)[C@H](Cc2ccccc2)NC(=O)[C@H]([C@@H](C)O)NC1=O` [compound 13] ({Biotin-PEG5}-[Pra]TTFFF[Lys(N3)]-NH2; triazole 1-7), for which, in data set [1], the “Isocratic point (%)” value is reported as 53.40%. In data set [2] (ELISA 4, [MrkA] 100 nM), the “Relative affinity (ratio of ELISA signal versus cy(LLFFF))” value is recorded as 0.04.
Consider `CC(C)C[C@@H]1NC(=O)[C@@H](NC(=O)CCOCCOCCOCCOCCOCCOCCOCCOCCOCCOCCNC(=O)[C@H](CCCNC(=N)N)NC(=O)[C@H](CCCNC(=N)N)NC(=O)[C@H](CCCNC(=N)N)NC(=O)CCOCCOCCOCCOCCOCCOCCOCCOCCOCCOCCNC(=O)CCCC[C@@H]2SC[C@@H]3NC(=O)N[C@@H]32)Cc2cn(nn2)CCCC[C@@H](C(N)=O)NC(=O)[C@H](Cc2ccccc2)NC(=O)[C@H](Cc2ccccc2)NC(=O)[C@H](Cc2ccccc2)NC(=O)[C@H](CC(C)C)NC1=O` [compound 16] ({Biotin-PEG10}-RRR[PEG10][Pra]LLFFF[Lys(N3)]-NH2; triazole 5-11), for which, in data set [1], the “Isocratic point (%)” value stood at 45.02%. Besides, in data set [2] (ELISA 5, [MrkA] 25 nM), the “Relative affinity (ratio of ELISA signal versus cy(LLFFF))” value is 0.90.
Regarding `CC(C)C[C@@H]1NC(=O)[C@@H](NC(=O)CCOCCOCCOCCOCCOCCOCCOCCOCCOCCOCCNC(=O)[C@H](CCCNC(=N)N)NC(=O)[C@H](CCCNC(=N)N)NC(=O)[C@H](CCCNC(=N)N)NC(=O)[C@H](CCCNC(=N)N)NC(=O)[C@H](CCCNC(=N)N)NC(=O)[C@H](CCCNC(=N)N)NC(=O)CCOCCOCCOCCOCCOCCOCCOCCOCCOCCOCCNC(=O)CCCC[C@@H]2SC[C@@H]3NC(=O)N[C@@H]32)Cc2cn(nn2)CCCC[C@@H](C(N)=O)NC(=O)[C@H](Cc2ccccc2)NC(=O)[C@H](Cc2ccccc2)NC(=O)[C@H](Cc2ccccc2)NC(=O)[C@H](CC(C)C)NC1=O` [compound 17] ({Biotin-PEG10}-RRRRRR[PEG10][Pra]LLFFF[Lys(N3)]-NH2; triazole 8-14), in data set [1], the “Isocratic point (%)” value worked out at 39.82%. In addition, in data set [2] (ELISA 5, [MrkA] 25 nM), the “Relative affinity (ratio of ELISA signal versus cy(LLFFF))” value is recorded as 1.22.
On the same counts, the results for `CC(C)C[C@@H]1NC(=O)[C@@H](NC(=O)CCOCCOCCOCCOCCOCCOCCOCCOCCOCCOCCNC(=O)[C@H](CCCNC(=N)N)NC(=O)[C@H](CCCNC(=N)N)NC(=O)[C@H](CCCNC(=N)N)NC(=O)[C@H](CCCNC(=N)N)NC(=O)[C@H](CCCNC(=N)N)NC(=O)[C@H](CCCNC(=N)N)NC(=O)[C@H](CCCNC(=N)N)NC(=O)[C@H](CCCNC(=N)N)NC(=O)[C@H](CCCNC(=N)N)NC(=O)CCOCCOCCOCCOCCOCCOCCOCCOCCOCCOCCNC(=O)CCCC[C@@H]2SC[C@@H]3NC(=O)N[C@@H]32)Cc2cn(nn2)CCCC[C@@H](C(N)=O)NC(=O)[C@H](Cc2ccccc2)NC(=O)[C@H](Cc2ccccc2)NC(=O)[C@H](Cc2ccccc2)NC(=O)[C@H](CC(C)C)NC1=O` [compound 18] are 37.03% and 0.58.
As for `CC(C)C[C@@H]1NC(=O)[C@H](Cc2c[nH]cn2)NC(=O)[C@@H](NC(=O)CCOCCOCCOCCOCCOCCOCCOCCOCCOCCOCCNC(=O)CCCC[C@@H]2SC[C@@H]3NC(=O)N[C@@H]32)Cc2cn(nn2)CCCC[C@@H](C(N)=O)NC(=O)[C@H](Cc2ccccc2)NC(=O)[C@H](Cc2ccccc2)NC(=O)[C@H](Cc2ccccc2)NC1=O` [compound 19] ({Biotin-PEG10}-[Pra]HLFFF[Lys(N3)]-NH2; triazole 1-7), the “Isocratic point (%)” value in data set [1] was determined as 47.52%. In addition, the “Relative affinity (ratio of ELISA signal versus cy(LLFFF))” value in data set [2] (ELISA 6, [MrkA] 25 nM) was determined as 0.81.
On the same counts, the results for `CC(C)C[C@@H]1NC(=O)[C@H](CC(=O)O)NC(=O)[C@@H](NC(=O)CCOCCOCCOCCOCCOCCOCCOCCOCCOCCOCCNC(=O)CCCC[C@@H]2SC[C@@H]3NC(=O)N[C@@H]32)Cc2cn(nn2)CCCC[C@@H](C(N)=O)NC(=O)[C@H](Cc2ccccc2)NC(=O)[C@H](Cc2ccccc2)NC(=O)[C@H](Cc2ccccc2)NC1=O` [compound 20] ({Biotin-PEG10}-[Pra]DLFFF[Lys(N3)]-NH2; triazole 1-7) are 66.33% and 0.21.
With `CC(C)C[C@@H]1NC(=O)[C@@H](NC(=O)CCOCCOCCOCCOCCOCCOCCOCCOCCOCCOCCNC(=O)CCCC[C@@H]2SC[C@@H]3NC(=O)N[C@@H]32)Cc2cn(nn2)CCCC[C@@H](C(N)=O)NC(=O)[C@H](Cc2ccccc2)NC(=O)[C@H](Cc2ccccc2)NC(=O)[C@H](CC(C)C)NC1=O` [compound 21] ({Biotin-PEG10}-[Pra]LLFF[Lys(N3)]-NH2; triazole 1-6), the “Isocratic point (%)” value in data set [1] was found to be 64.99%. The “Relative affinity (ratio of ELISA signal versus cy(LLFFF))” value in data set [2] (ELISA 6, [MrkA] 25 nM) stood at 0.14.
For `CC(C)C[C@@H]1NC(=O)[C@@H](NC(=O)CCOCCOCCOCCOCCOCCOCCOCCOCCOCCOCCNC(=O)CCCC[C@@H]2SC[C@@H]3NC(=O)N[C@@H]32)Cc2cn(nn2)CCCC[C@@H](C(N)=O)NC(=O)[C@H](Cc2ccccc2)NC(=O)[C@H](CC(C)C)NC1=O` [compound 22] ({Biotin-PEG10}-[Pra]LLF[Lys(N3)]-NH2; triazole 1-5), the “Isocratic point (%)” value in data set [1] was found to be 56.45%. Besides, the “Relative affinity (ratio of ELISA signal versus cy(LLFFF))” value in data set [2] (ELISA 6, [MrkA] 25 nM) worked out at 0.09.
On the same counts, the results for `NC(=O)[C@@H]1CCCCn2cc(nn2)C[C@H](NC(=O)CCOCCOCCOCCOCCOCCOCCOCCOCCOCCOCCNC(=O)CCCC[C@@H]2SC[C@@H]3NC(=O)N[C@@H]32)C(=O)N[C@@H](Cc2ccccc2)C(=O)N[C@@H](Cc2ccccc2)C(=O)N[C@@H](Cc2ccccc2)C(=O)N1` [compound 23] ({Biotin-PEG10}-[Pra]FFF[Lys(N3)]-NH2; triazole 1-5) are 60.27% and 0.14.
